Source: publication PMC3557166, “'Le Rouge et le Noir': A decline in flavone formation correlates with the rare color of black dahlia (Dahlia variabilis hort.) flowers” (BMC Plant Biology, 2012)
Where a chain is given by its changes, count along the chain named.

Columns and labels:
[1] = system: T1, recombinant FNS II (cv. Rubens GQ479808 and cv. Chat Noir GQ489009); experiment: […]-flavanone conversion to luteolin, TLC radioscan, recombinant yeast preparation; format: biochemical, Dahlia pinnata; conditions: NADPH; pH optimum 7.50; 25-30°C optimum; labelled compound; clone (GQ479808 or GQ489009) not told; read-out: apparent Km
T1 construct: full-length ORF in pYES2.1/V5-His-TOPO, expressed in S. cerevisiae INVSc1

[2] = biological target: T2, FNS II (cv. White Alva, GQ489011) (Dahlia pinnata, UniProt G3BGL9); experiment: […]-flavanone conversion to flavone, TLC radioscan, recombinant yeast preparation; format: biochemical; conditions: NADPH; labelled compound
T2 construct: full-length ORF in pYES2.1/V5-His-TOPO, expressed in S. cerevisiae INVSc1
T2 sequence (G3BGL9 1-513): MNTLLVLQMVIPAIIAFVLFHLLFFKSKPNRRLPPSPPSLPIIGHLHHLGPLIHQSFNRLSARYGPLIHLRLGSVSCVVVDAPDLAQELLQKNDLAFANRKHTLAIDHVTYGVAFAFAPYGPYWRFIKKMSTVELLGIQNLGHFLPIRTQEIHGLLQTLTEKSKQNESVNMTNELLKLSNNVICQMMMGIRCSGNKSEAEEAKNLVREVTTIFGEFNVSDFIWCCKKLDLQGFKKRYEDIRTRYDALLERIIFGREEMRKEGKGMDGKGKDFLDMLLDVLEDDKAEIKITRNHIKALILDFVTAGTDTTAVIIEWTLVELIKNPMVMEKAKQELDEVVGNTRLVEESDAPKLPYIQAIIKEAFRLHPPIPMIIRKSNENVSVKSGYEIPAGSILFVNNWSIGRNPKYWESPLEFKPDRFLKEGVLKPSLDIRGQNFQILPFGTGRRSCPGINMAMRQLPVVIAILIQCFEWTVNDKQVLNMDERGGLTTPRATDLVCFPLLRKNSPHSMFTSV

[3] = biological target: T3, FNS II (cv. Aurora's Kiss, GQ489010) (Dahlia pinnata, UniProt G3BGL8); experiment: as above; format: biochemical; conditions: NADPH; labelled compound
T3 construct: full-length ORF in pYES2.1/V5-His-TOPO, expressed in S. cerevisiae INVSc1
T3 sequence (G3BGL8 1-513): T2 sequence (G3BGL9 1-513) with L19I, K28E, V80A, Q157L, K162E, S168G, C224F, I462V

[4] = biological target: T4, FNS II (cv. Feuerschein, GQ479806) (Dahlia pinnata, UniProt G8Z369); experiment: as above; format: biochemical; conditions: NADPH; labelled compound
T4 construct: gene DvFNS1; full-length ORF in pYES2.1/V5-His-TOPO, expressed in S. cerevisiae INVSc1
T4 sequence (G8Z369 1-514): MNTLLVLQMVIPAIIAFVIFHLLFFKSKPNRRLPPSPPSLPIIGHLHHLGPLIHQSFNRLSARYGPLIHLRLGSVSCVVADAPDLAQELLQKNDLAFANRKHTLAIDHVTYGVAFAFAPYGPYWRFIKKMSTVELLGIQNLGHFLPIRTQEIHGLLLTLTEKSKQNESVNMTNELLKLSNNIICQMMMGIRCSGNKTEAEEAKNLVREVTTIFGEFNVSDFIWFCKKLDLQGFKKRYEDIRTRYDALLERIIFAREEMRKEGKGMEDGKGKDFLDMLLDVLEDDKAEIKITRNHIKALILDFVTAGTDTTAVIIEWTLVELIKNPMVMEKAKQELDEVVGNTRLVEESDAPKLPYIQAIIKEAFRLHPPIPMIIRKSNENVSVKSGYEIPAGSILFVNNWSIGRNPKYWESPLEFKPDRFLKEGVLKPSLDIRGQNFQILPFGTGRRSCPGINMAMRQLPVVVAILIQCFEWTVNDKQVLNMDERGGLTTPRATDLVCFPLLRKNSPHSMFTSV

[5] = biological target: T5, FNS II (cv. Rubens, GQ479809) (Dahlia pinnata, UniProt G8Z372); experiment: as above; format: biochemical; conditions: NADPH; labelled compound
T5 construct: full-length ORF in pYES2.1/V5-His-TOPO, expressed in S. cerevisiae INVSc1
T5 sequence (G8Z372 1-513): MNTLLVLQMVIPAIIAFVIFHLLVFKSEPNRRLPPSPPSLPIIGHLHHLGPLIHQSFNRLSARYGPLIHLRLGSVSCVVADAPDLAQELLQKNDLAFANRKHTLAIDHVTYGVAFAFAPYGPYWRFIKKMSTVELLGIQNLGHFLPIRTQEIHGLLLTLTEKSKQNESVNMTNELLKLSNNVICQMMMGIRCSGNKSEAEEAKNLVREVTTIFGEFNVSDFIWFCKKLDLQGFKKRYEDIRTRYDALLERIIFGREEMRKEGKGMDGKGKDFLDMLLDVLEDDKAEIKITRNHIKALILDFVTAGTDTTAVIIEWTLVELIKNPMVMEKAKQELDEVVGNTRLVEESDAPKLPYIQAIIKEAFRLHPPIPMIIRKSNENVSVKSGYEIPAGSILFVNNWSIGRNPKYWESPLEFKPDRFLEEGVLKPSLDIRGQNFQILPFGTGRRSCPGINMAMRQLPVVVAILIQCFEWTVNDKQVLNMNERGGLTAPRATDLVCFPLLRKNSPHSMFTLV

[6] = biological target: T6, FNS II (cv. Alva's Supreme, GQ479807) (Dahlia pinnata, UniProt G8Z370); experiment: as above; format: biochemical; conditions: NADPH; labelled compound
T6 construct: full-length ORF in pYES2.1/V5-His-TOPO, expressed in S. cerevisiae INVSc1
T6 sequence (G8Z370 1-514): T4 sequence (G8Z369 1-514) with C184Y, E266D

[7] = biological target: T7, FNS II (cv. Chat Noir, GQ489008) (Dahlia pinnata, UniProt G3BGL6); experiment: as above; format: biochemical; conditions: NADPH; labelled compound
T7 construct: full-length ORF in pYES2.1/V5-His-TOPO, expressed in S. cerevisiae INVSc1
T7 sequence (G3BGL6 1-514): T4 sequence (G8Z369 1-514) with I11V, P83L, E266D, F499L, L501S

[8] = system: T1, recombinant FNS II (cv. Rubens GQ479808 and cv. Chat Noir GQ489009); experiment: […]-flavanone conversion to apigenin, TLC radioscan, recombinant yeast preparation; format: biochemical, Dahlia pinnata; conditions: NADPH; pH optimum 6.50; 25-30°C optimum; labelled compound; clone (GQ479808 or GQ489009) not told; read-out: apparent Km

O=C1C[C@@H](c2ccc(O)c(O)c2)Oc2cc(O)cc(O)c21 [eriodictyol]
Km [1]: 4.2 µM
14C-flavanone conversion to flavone, TLC radioscan, recombinant yeast preparatio [2]: formation of apigenin and luteolin from naringenin and eriodictyol, respectively
14C-flavanone conversion to flavone, TLC radioscan, recombinant yeast preparatio [3]: formation of apigenin and luteolin from naringenin and eriodictyol, respectively
14C-flavanone conversion to flavone, TLC radioscan, recombinant yeast preparatio [4]: formation of apigenin and luteolin from naringenin and eriodictyol, respectively
14C-flavanone conversion to flavone, TLC radioscan, recombinant yeast preparatio [5]: formation of apigenin and luteolin from naringenin and eriodictyol, respectively
14C-flavanone conversion to flavone, TLC radioscan, recombinant yeast preparatio [6]: formation of apigenin and luteolin from naringenin and eriodictyol, respectively
14C-flavanone conversion to flavone, TLC radioscan, recombinant yeast preparatio [7]: formation of apigenin and luteolin from naringenin and eriodictyol, respectively

O=C1C[C@@H](c2ccc(O)cc2)Oc2cc(O)cc(O)c21 [naringenin]
14C-flavanone conversion to flavone, TLC radioscan, recombinant yeast preparatio [2]: formation of apigenin and luteolin from naringenin and eriodictyol, respectively
14C-flavanone conversion to flavone, TLC radioscan, recombinant yeast preparatio [3]: formation of apigenin and luteolin from naringenin and eriodictyol, respectively
14C-flavanone conversion to flavone, TLC radioscan, recombinant yeast preparatio [4]: formation of apigenin and luteolin from naringenin and eriodictyol, respectively
14C-flavanone conversion to flavone, TLC radioscan, recombinant yeast preparatio [5]: formation of apigenin and luteolin from naringenin and eriodictyol, respectively
Km [8]: 3.86 µM
14C-flavanone conversion to flavone, TLC radioscan, recombinant yeast preparatio [6]: formation of apigenin and luteolin from naringenin and eriodictyol, respectively
14C-flavanone conversion to flavone, TLC radioscan, recombinant yeast preparatio [7]: formation of apigenin and luteolin from naringenin and eriodictyol, respectively
